In ChEMBL document CHEMBL1201862, “PubChem BioAssay data set” (2004) one finds IC50, EC50 and AC50 data, which are given here for 4 compounds.

Experiment [1] addresses T1, Tyrosine-protein phosphatase non-receptor type 7 (Homo sapiens, UniProt P35236).
T1 sequence (P35236 whole entry): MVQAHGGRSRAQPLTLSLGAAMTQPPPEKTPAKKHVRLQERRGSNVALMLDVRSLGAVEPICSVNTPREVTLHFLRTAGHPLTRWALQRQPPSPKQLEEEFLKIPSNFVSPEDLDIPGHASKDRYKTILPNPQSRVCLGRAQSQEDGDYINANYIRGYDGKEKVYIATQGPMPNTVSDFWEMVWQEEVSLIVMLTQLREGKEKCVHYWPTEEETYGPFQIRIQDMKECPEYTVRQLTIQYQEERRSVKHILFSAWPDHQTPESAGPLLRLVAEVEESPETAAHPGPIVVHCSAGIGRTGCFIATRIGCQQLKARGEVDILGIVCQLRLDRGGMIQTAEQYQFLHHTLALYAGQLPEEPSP
Format: functional.

Experiment [2] deals with Glyceraldehyde-3-phosphate dehydrogenase (Homo sapiens, UniProt P04406).
Experiment [3] addresses T2, Dual specificity protein phosphatase 6 (Rattus norvegicus, UniProt Q64346).
Experiment [4] has as its target T2, Dual specificity protein phosphatase 6. Format: functional.
Experiment [5] in a line: cytotoxicity in HPDE-C7 cells, cell-based, fluorescence, HTS (AID 430). Format: functional. The conditions noted are these: Homo sapiens.
Experiment [6] is described as follows: cytotoxicity in KRAS-transformed pancreatic duct cells, primary screen, cell-based, fluorescence, HTS (AID 431). Format: functional. Particulars: Homo sapiens.
Experiment [7] in a line: growth suppression of PTEN-null colon cells, dose response, cell-based, HCT116 PTEN knockout (AID 1047).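 Further: HCT116 colon tumor cells with PTEN knocked out; cells exposed to compound for 60 hours before readout; potency for loss of cell viability measured by luminescence.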 Format: functional.
Experiment [8] can be described thus: growth suppression of beta-catenin-knockout colon cells, dose response, cell-based, HCT116, human colon tumor (AID 1045).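 Further: HCT116 colon tumor cells with beta catenin knocked out; cells exposed to compound for 60 hours.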 Format: functional.
Another experiment deals with HEK293. The experiment in a line: inhibitors of LMP1-driven NF-kB reporter, dose response, cell-based, HEK293, luciferase, cherry-pick (AID 588343). Format: functional. Particulars: Homo sapiens.
Experiment [9] concerns the target Latent membrane protein 1 (Human herpesvirus 4 (strain B95-8), UniProt P03230). The experiment in a line: TES1-eGFP NF-kB reporter inhibition versus Tet-On dsRED, dose response, selectivity assay for LMP1 NF-kB inhibitor project, imaging, HEK293T, dual-color eGFP/dsRED, cherry-picks (AID 588398). Format: functional, cell-based.
Experiment [10] deals with G-protein coupled receptor 55 (Homo sapiens, UniProt Q9Y2T6). The experiment in a line: GPR55 agonists via beta-arrestin recruitment, primary screen, imaging, U2OS cells, beta-arrestin-GFP redistribution (AID 1961). Format: functional. A general note: Activated receptors often draw arrestin, which recruitment assays turn into a signal.
For another experiment, the target named is T3, CAAX prenyl protease 2 (Saccharomyces cerevisiae S288c, UniProt Q03530).
T3 sequence (Q03530 whole entry): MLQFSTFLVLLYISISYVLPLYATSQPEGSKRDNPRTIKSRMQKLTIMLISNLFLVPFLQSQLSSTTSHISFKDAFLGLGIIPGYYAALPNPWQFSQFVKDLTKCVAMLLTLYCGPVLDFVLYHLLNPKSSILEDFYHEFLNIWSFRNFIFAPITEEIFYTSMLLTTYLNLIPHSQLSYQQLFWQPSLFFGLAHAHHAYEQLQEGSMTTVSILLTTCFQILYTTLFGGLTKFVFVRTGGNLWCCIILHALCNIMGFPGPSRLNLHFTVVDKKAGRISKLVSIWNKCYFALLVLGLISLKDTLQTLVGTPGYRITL
Format: biochemical.

For a further experiment, the target named is CAAX prenyl protease 1 (Saccharomyces cerevisiae S288c, UniProt P47154). In words: Ste24 protease inhibitors, dose response, biochemical, S. cerevisiae, plate reader, cherry-pick (AID 488815).
The subject of the next experiment is INS1. The experiment in a line: beta cell apoptosis inhibitors, cytokine rescue, dose response, luminescence, retest (AID 449756).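 Further: cell death triggered by IL-1 beta plus TNF-alpha plus IFN-gamma mixture; protective hits raise ATP signal compared with cytokine alone wells.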 The conditions noted are these: Rattus norvegicus. Format: functional, cell-based.
Experiment [11] in a line: Shn3 3'UTR reporter inhibitors, dose response, cell-based, Clone20 osteoblasts, firefly luciferase, cherry-picked (AID 624132).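 Further: firefly luciferase luminescence from reporter carrying the Shn3 3'UTR in osteoblasts.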 Format: functional.
Experiment [12] can be described thus: HepG2 cell cytotoxicity, dose response, cytotoxicity control for Shn3 inhibitor project, CellTiter-Glo, cherry-picked (AID 624134). Format: functional, cell-based. Background: In ATP-based viability assays light output follows the ATP content of the culture.
A short description of experiment [13]: control 3'UTR Renilla luciferase suppression, dose response, counter-screen for Shn3 inhibitor project, cell-based, Clone20-Shn3RL, cherry-picked (AID 624133). Format: functional. In general terms: The purpose of a counterscreen is to sort out artefacts and off-target activity.
Experiment [14] in a line: NIH-3T3 fibroblast cytotoxicity, dose response, cytotoxicity control, cell-based, fluorescence, Alamar Blue, secondary assay (AID 2327).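 Further: NIH-3T3 mouse fibroblasts cultured with fluconazole at 8 µg/mL.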 Format: functional.
The nature of experiment [15]: C. albicans growth with fluconazole, confirmation, fluorescence, retest (AID 2467). Format: functional, cell-based.
Experiment [16] deals with T4, Serine/threonine-protein phosphatase (Candida dubliniensis (strain CD36 / CBS 7987 / NCPF 3949 / NRRLY-17841) (Yeast), UniProt B9W6M3).
T4 sequence (B9W6M3 whole entry): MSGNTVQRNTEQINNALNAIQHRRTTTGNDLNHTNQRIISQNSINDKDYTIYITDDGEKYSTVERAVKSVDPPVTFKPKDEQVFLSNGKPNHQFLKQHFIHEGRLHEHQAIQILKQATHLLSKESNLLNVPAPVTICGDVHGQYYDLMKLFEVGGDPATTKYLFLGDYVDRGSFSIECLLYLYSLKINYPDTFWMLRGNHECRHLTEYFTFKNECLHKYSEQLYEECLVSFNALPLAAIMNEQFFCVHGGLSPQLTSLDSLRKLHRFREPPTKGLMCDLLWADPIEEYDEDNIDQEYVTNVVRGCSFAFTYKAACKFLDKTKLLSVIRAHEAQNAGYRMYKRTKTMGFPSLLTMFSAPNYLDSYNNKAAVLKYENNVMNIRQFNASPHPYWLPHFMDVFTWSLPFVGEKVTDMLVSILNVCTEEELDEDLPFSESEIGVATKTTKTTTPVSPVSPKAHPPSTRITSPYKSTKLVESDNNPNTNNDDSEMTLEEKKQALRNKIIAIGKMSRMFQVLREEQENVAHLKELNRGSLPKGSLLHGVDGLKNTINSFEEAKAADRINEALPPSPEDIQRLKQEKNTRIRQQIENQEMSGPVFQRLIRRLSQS
In words: calcineurin pathway inhibitors in yeast reporter, dose response, S. cerevisiae, CDRE-lacZ, luminescence, secondary (AID 2388).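 Further: yeast reporter cells carrying a calcineurin-responsive lacZ construct stimulated with calcium chloride; luminescent beta-galactosidase reporter signal in whole cells rather than isolated phosphatase activity; potency for inhibition where a drop in reporter signal means calcineurin blockade.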 Format: functional, cell-based.

The nature of experiment [17]: Luminescence Cell-Based Dose Retest to Confirm Inhibitors of Cancer Stem Cells. [Related pubchem assays (depositor defined):AID2717, AID2721]. The conditions noted are these: Homo sapiens. Format: functional.
For experiment [18], the target named is T4, Serine/threonine-protein phosphatase. In words: Fluorescence Cell-Based Secondary Assay to Identify Inhibitors of Calcineurin. [Related pubchem assays (depositor defined):AID1979, AID2007]. Format: functional.
Experiment [19] concerns the target ATP-dependent molecular chaperone HSP82 (Candida albicans (strain WO-1) (Yeast), UniProt C4YTQ8). In words: loss of DOC-induced GRE-beta-galactosidase reporter signal, dose response, Hsp90 inhibitor project, S. cerevisiae, luminescence (AID 2400).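 Further: beta-galactosidase luminescence from glucocorticoid response element reporter as proxy for Hsp90 function; inhibitor potency where signal loss means Hsp90 inhibition.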 Format: functional, cell-based.

Calls of active or inactive are those of the source. Where only a bound is given, the exact number is not on record here.

T2 sequence (Q64346 whole entry): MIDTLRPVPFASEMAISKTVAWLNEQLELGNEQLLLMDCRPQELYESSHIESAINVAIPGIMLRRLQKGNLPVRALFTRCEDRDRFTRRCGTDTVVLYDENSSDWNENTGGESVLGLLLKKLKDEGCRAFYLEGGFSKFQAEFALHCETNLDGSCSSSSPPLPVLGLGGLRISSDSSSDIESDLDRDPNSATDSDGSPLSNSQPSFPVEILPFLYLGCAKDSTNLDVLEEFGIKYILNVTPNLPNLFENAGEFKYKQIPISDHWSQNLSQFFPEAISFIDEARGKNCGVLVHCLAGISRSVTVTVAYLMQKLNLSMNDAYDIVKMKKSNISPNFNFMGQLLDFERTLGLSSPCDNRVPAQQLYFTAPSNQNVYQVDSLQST
Sequence of ATP-dependent molecular chaperone HSP82 (C4YTQ8 whole entry): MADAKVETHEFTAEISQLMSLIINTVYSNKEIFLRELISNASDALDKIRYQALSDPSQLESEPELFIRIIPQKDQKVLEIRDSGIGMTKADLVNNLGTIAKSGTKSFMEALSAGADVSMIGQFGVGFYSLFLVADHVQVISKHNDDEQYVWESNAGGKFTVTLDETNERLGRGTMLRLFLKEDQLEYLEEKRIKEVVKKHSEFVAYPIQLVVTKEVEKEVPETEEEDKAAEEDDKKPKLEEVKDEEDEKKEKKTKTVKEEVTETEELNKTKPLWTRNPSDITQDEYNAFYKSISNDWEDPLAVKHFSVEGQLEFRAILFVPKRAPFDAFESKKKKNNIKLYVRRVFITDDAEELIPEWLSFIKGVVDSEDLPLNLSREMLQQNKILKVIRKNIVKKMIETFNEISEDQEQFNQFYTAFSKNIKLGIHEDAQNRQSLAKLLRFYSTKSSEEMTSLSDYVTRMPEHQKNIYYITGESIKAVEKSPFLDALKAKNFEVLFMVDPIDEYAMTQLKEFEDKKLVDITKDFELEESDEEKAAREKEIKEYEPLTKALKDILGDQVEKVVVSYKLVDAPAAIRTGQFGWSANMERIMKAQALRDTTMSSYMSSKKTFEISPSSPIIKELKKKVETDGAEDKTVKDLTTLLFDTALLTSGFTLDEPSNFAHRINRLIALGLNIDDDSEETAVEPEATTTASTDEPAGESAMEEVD
Sequence of Latent membrane protein 1 (P03230 whole entry): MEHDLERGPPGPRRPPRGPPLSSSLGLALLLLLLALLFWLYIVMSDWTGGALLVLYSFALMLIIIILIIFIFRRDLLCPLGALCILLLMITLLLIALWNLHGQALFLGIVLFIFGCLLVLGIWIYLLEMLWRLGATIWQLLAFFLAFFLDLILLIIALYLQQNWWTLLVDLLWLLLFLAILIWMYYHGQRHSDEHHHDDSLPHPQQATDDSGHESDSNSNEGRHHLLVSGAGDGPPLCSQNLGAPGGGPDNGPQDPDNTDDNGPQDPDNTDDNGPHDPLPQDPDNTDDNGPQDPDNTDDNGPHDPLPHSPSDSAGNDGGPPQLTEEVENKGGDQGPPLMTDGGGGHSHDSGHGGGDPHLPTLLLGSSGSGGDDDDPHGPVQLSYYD
Sequence of G-protein coupled receptor 55 (Q9Y2T6 whole entry): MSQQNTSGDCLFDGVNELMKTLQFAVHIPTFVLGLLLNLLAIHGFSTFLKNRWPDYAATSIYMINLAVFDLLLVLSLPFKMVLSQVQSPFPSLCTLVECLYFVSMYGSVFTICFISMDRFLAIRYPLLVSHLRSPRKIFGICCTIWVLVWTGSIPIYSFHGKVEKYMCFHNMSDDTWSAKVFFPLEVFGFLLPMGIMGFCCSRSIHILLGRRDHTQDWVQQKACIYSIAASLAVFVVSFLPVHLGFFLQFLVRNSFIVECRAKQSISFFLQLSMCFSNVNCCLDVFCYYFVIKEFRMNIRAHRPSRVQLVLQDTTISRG
Sequence of Glyceraldehyde-3-phosphate dehydrogenase (P04406 whole entry): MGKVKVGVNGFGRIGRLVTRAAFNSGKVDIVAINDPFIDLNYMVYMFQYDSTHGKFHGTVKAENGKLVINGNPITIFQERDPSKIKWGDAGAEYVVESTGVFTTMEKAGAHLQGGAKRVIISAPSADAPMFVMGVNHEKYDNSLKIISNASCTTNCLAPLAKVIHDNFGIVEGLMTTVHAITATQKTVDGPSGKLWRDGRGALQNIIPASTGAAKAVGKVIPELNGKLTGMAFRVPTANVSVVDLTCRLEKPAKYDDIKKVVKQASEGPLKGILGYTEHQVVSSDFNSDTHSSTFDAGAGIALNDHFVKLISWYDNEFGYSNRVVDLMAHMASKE
Sequence of CAAX prenyl protease 1 (P47154 whole entry): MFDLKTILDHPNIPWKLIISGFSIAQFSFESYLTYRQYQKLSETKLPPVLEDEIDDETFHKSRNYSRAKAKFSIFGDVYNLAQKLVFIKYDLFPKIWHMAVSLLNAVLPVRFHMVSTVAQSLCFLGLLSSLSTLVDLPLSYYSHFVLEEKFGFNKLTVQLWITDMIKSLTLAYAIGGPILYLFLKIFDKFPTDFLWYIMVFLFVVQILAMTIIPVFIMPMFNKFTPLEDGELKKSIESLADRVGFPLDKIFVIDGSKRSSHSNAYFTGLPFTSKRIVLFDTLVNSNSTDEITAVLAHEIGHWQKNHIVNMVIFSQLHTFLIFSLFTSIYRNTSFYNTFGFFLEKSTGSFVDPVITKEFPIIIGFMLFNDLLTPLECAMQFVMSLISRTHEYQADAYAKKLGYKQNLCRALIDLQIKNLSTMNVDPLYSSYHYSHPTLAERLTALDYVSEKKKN

For orientation: IC50 means the concentration that gives 50% inhibition. For the compound `COCCCNc1nc(=O)n(-c2ccc(C)cc2)c(=O)[nH]1`, the IC50 in [1] was > 100 µM (not active); in experiment [2], > 100 µM (not active); in [3], > 100 µM (inactive); in experiment [4], > 100 µM (inactive).
For orientation: EC50 means the concentration at which the effect is half-maximal. By AC50 is commonly meant the concentration giving half of the maximal activity seen. `COc1ccc(C(=O)C(CN2CCOCC2)c2ccccc2)cc1F` (stereo not drawn): the EC50 is 5.54 µM (active) in experiment [5], 8.65 µM (active) in [6], 2.19 µM (active) in experiment [7] and 1.31 µM (active) in experiment [8]. Moreover, the AC50 was 13.2 µM (active) in the experiment on HEK293 and 5.06 µM (active) in experiment [9].
On to `COc1ccc(C2/C=C\CN(C(=O)c3ccc(C)cc3)[C@H](Cc3ccccc3)C(=O)N2Cc2ccc(F)cc2)cc1` (stereo partly drawn), for which, in [10], the EC50 is > 32 µM (inactive). For the same compound, the AC50 was 35.1 µM (active) on CAAX prenyl protease 2; 37.3 µM (active) at CAAX prenyl protease 1; 7.14 µM (active) in the experiment with INS1; 0.772 µM (active) in [11]; > 70 µM (inactive) in experiment [12]; 18.1 µM (active) in experiment [13].
In the case of `Cc1oc2c(F)c(F)c(F)c(F)c2c1S(=O)(=O)Nc1cccc(C(F)(F)F)c1`, the EC50 in experiment [14] is > 160 µM (inconclusive); in experiment [15], 0.859 µM (active); in [16], 18.1 µM (active); in [18], 9.76 µM (active); in [19] it was 4.6 µM (active). Besides, in experiment [17], the AC50 was 2.3 µM (active).
